# In patent US4536398A, “Antiviral agents” (Meiji Seika Kaisha Ltd., priority 1982, dated 1985):
# Read-outs that look alike come from different tables or passages of the source.
# Legend:
# [1] = test system: Pseudomonas cepacia M-0527; test: Agar dilution antibacterial MIC; type: cell-based; conditions: Burkholderia cepacia, M0527; agar dilution method; read-out: Minimum Inhibitory Concentration
# [2] = Serum level after oral administration; type: in vivo; conditions: 125 mg/kg oral (5% arabin gum), HPLC, mice n=3
# Method: | Dose: 125 mg/kg (5% arabin gum)
# Vibrio percolance = test: Paper disc plate bioassay, inhibition zone; type: cell-based; conditions: paper disc plate method, read-out: diameter of inhibition zone
# Description: For assay of the substance SF-2140, bioassay agar is used as a medium for assay and Vibrio percolance is as a test microbe.
# Influenza virus A1 /FM-1 [3] = test: microbe, parasite or virus in culture; type: cell-based
# [4] = test system: Baciullus anthrasis No. 119; test: Agar dilution antibacterial MIC; type: cell-based; conditions: read-out: Minimum Inhibitory Concentration
# [5] = test system: Streptococcus faecalis ATCC 8043; test: Agar dilution antibacterial MIC; type: cell-based; conditions: Enterococcus faecalis, ATCC8043; agar dilution method; read-out: Minimum Inhibitory Concentration
# [6] = test system: Klebsiella pneumoniae PCI 602; test: Agar dilution antibacterial MIC; type: cell-based; conditions: PCI602, agar dilution method, read-out: Minimum Inhibitory Concentration
# [7] = test system: Pseudomonas aeruginosa MB 3829; test: Agar dilution antibacterial MIC; type: cell-based; conditions: MB3829, agar dilution method, read-out: Minimum Inhibitory Concentration
# [8] = test system: Shigella sonnei EW33 type I; test: Agar dilution antibacterial MIC; type: cell-based; conditions: EW33TYPEI, agar dilution method, read-out: Minimum Inhibitory Concentration
# [9] = test system: Influenza virus Horse/Miami; test: microbe, parasite or virus in culture; type: cell-based
# Sarcina lutea = test: Agar dilution antibacterial MIC; type: cell-based; conditions: Micrococcus luteus; agar dilution method; read-out: Minimum Inhibitory Concentration
# in vitro = conditions: chicken, chorioallantoic membrane
# Influenza virus B/Lee [10] = test: microbe, parasite or virus in culture; type: cell-based; conditions: unidentified influenza virus, 48 h, read-out: 50% Virus proliferation inhibiting conc.
# Solubility = type: physicochemical
# Salmonella typhi 0-901-W = test: Agar dilution antibacterial MIC; type: cell-based; conditions: Salmonella enterica, read-out: Minimum Inhibitory Concentration
# Stability = type: physicochemical
# Description: (13) Stability: Stable under acidic to neutral condition, instable under alkaline condition.
# [11] = test system: Staphylococcus aureus Smith; test: Agar dilution antibacterial MIC; type: cell-based; conditions: agar dilution method, read-out: Minimum Inhibitory Concentration
# Proteus morganii Kono = test: Agar dilution antibacterial MIC; type: cell-based; conditions: Morganella morganii; agar dilution method; read-out: Minimum Inhibitory Concentration
# [12] = test system: Escherichia coli W3630 RGN 823; test: Agar dilution antibacterial MIC; type: cell-based; conditions: W3630RGN823, read-out: Minimum Inhibitory Concentration
# Acute toxicity (LD50) = conditions: mouse, in vivo, ip; mice, intraperitoneal
# Method: Acute toxicity (LD50 value) of the substance SF-2140, the active ingredient in the present antiviral agent, was not less than 500 mg/kg in mice via intraperitoneal administration.
# [13] = test system: Influenza virus A2 /Adachi; test: microbe, parasite or virus in culture; type: cell-based
# [14] = Serum level after intraperitoneal administration; type: in vivo; conditions: 200 mg/kg intraperitoneal (1% CMC), biological assay, mice n=5
# Method: | Dose: 200 mg/kg (1% CMC)
# [15] = test system: Citrobacter freundii GN 346; test: Agar dilution antibacterial MIC; type: cell-based; conditions: GN346, read-out: Minimum Inhibitory Concentration
# Influenza virus B/Lee [16] = test: microbe, parasite or virus in culture; type: cell-based
# [17] = test system: Staphylococcus aureus 209P; test: Agar dilution antibacterial MIC; type: cell-based; conditions: agar dilution method, read-out: Minimum Inhibitory Concentration
# [18] = test system: Influenza virus Horse/Miami; test: microbe, parasite or virus in culture; type: cell-based; remark: listed apart in the source
# Escherichia coli No. 29 = test: Agar dilution antibacterial MIC; type: cell-based; conditions: agar dilution method, read-out: Minimum Inhibitory Concentration
# [19] = test system: Influenza virus A2 /Adachi; test: microbe, parasite or virus in culture; type: cell-based; remark: listed apart in the source
# Influenza virus A1 /FM-1 [20] = test: microbe, parasite or virus in culture; type: cell-based; remark: listed apart in the source
# Proteus vulgaris OX-19 = test: Agar dilution antibacterial MIC; type: cell-based; conditions: OX19, agar dilution method, read-out: Minimum Inhibitory Concentration
# [21] = test system: Salmonella enteritidis No. 11; test: Agar dilution antibacterial MIC; type: cell-based; conditions: Salmonella enterica, agar dilution method, read-out: Minimum Inhibitory Concentration
# [22] = unidentified influenza virus, 48 h, read-out: 50% Virus proliferation inhibiting conc.
# [23] = unidentified influenza virus, 2 h, read-out: 50% Virucidal conc.
structure (smiles),measurement,setting,value
COC(=O)C1CC(O)C(O)C(n2cc(CC#N)c3c(OC)cccc32)O1 (stereo not shown) [SF-2140],MIC,[1],100 µg/mL
same,Serum concentration,[2]; 180 min,0 ng/mL
same,concentration at 0.5 h,"[2]; mouse, serum, 30 min",15000 ng/mL
same,concentration at 1 h,"[2]; mouse, serum, 60 min",7000 ng/mL
same,zone of inhibition at 125 µg/mL,Vibrio percolance; 125 mcg/ml,14.6 mm
same,zone of inhibition at 1000 µg/mL,Vibrio percolance; 1000 mcg/ml,22 mm
same,proliferation inhibiting activity (in words),Influenza virus A1 /FM-1 [3],showed a proliferation inhibiting activity
same,virus proliferation inhibition index,"Influenza virus A1 /FM-1 [3]; A1 /FM-1, 50% toxicity conc. / 50% proliferation inhibiting conc., 2880 min",> 20.0
same,IC50,Influenza virus A1 /FM-1 [3]; [22],50.5 µg/mL
same,MIC,[4],6.25 µg/mL
same,MIC,[5],12.5 µg/mL
same,MIC,[6],> 100 µg/mL
same,MIC,[7],> 100 µg/mL
same,MIC,[8],> 100 µg/mL
same,proliferation inhibiting activity (in words),[9],showed a proliferation inhibiting activity
same,virus proliferation inhibition index,"[9]; Horse/Miami, 50% toxicity conc. / 50% proliferation inhibiting conc., 2880 min",> 56.5
same,IC50,[9]; [22],17.7 µg/mL
same,MIC,Sarcina lutea,50 µg/mL
same,CC50 at 24 h,in vitro,> 1000 µg/mL
same,IC50,Influenza virus B/Lee [10],> 200 µg/mL
same,Solubility,"Solubility; Ethyl acetate, benzene, acetone, chloroform",Soluble
same,Solubility,"Solubility; Hexane, water",Substantially insoluble
same,Solubility,"Solubility; Lower alcohol, e.g. methanol and ethanol",Easily soluble
same,MIC,Salmonella typhi 0-901-W,100 µg/mL
same,Stability,Stability; acidic to neutral condition,Stable
same,Stability,Stability; alkaline condition,instable
same,MIC,[11],100 µg/mL
same,MIC,Proteus morganii Kono,> 100 µg/mL
same,MIC,[12],50 µg/mL
same,LD50,Acute toxicity (LD50),≥ 500 mg/kg
same,proliferation inhibiting activity (in words),[13],showed a proliferation inhibiting activity
same,virus proliferation inhibition index,"[13]; A2 /Adachi, 50% toxicity conc. / 50% proliferation inhibiting conc., 2880 min",> 10.0
same,IC50,[13]; [22],100 µg/mL
same,Serum concentration,[14]; 90 min,0 ng/mL
same,concentration at 5 min,"[14]; mouse, serum, ip, 5 min",30000 ng/mL
same,concentration at 10 min,"[14]; mouse, serum, ip, 10 min",42000 ng/mL
same,concentration at 20 min,"[14]; mouse, serum, ip, 20 min",55000 ng/mL
same,concentration at 0.5 h,"[14]; mouse, serum, ip, 30 min",45000 ng/mL
same,concentration at 1 h,"[14]; mouse, serum, ip, 60 min",27000 ng/mL
same,MIC,[15],> 100 µg/mL
same,virucidal activity (in words),Influenza virus B/Lee [16],potent virucidal activity
same,IC50,Influenza virus B/Lee [16]; [23],46.4 µg/mL
same,MIC,[17],25 µg/mL
same,virucidal activity (in words),[18],potent virucidal activity
same,IC50,[18]; [23],4.6 µg/mL
same,MIC,Escherichia coli No. 29,> 100 µg/mL
same,virucidal activity (in words),[19],potent virucidal activity
same,IC50,[19]; [23],58.8 µg/mL
same,virucidal activity (in words),Influenza virus A1 /FM-1 [20],potent virucidal activity
same,IC50,Influenza virus A1 /FM-1 [20]; [23],4.6 µg/mL
same,MIC,Proteus vulgaris OX-19,25 µg/mL
same,MIC,[21],12.5 µg/mL
